# Results as given in patent publication US20200032313A1 (SANYO CHEMICAL INDUSTRIES, LTD., priority 2017, published 2020).
# Where two headings read alike, the source gives them in different places.
# What was measured:
# [1] = pKa of the ionizable group of the surfactant in water; details: two values where two ionizable groups
# Description: (§1) The pKa of the ionizable group in water is a value determined at 25° C.
# [2] = system: luciferase-expressing Pichia pastoris; assay type: cell-based; details: 8 hours
# Description: Transformation was performed using Pichia pastoris distributed by Biotechnology Center, National Institute of Technology and Evaluation, whereby luciferase-expressing microorganisms were produced. A vector pPICZ a (Thermo Fisher Scientific) was digested with XhoI and XbaI, and a synthetic (synthesized by Thermo Fisher Scientific on commission) luciferase gene having an XhoI cut site at one end and an XbaI cut site at the other end was inserted into the vector. The microorganisms were transformed by the luciferase gene-inserted pPICZ a according to the method described in an instruction manual of pPICZ a. The luciferase-expressing microorganisms were inoculated using a platinum loop into BMGY broth, and were shake-cultured at 200 rpm at 30° C. for 15 hours. Then, the thus-obtained broth was resuspended in 125-ml BMGY broth (yeast extract 1 wt % (Difco), bacto peptone 2 wt % (Difco), yeast nitrogen base w/o amino acid 1.34 wt % (Difco), glucose 2 wt %, and 100 mM potassium hydrogen phosphate; pH: 6.0) to a final OD of 0.1 OD/ml. Further, the resuspended broth was continued to be shake-cultured at 1100 rpm at 30° C. for about 17 hours until OD was 20 to 30. When OD was 20 to 30, the broth was centrifuged (1500 g, 10 min), and resuspended in 125-ml BMMY broth, followed by culturing at 1100 rpm at 30° C. for 2 hours.
# Two hours later, the surfactant described in Table 2 was added to the broth in the amount (wt %) described in Table 2, and the broth was cultured at 1100 rpm at 30° C. for 8 hours. Subsequently, the broth was sampled for measuring the optical density (optical density at the end of culturing) and for measuring the secretion efficiency. Then, these samples were subjected to centrifugation using a centrifuge to separate bacteria and the supernatant from the broth. Then, the supernatant and the bacteria were collected.
# The broth obtained in each of Examples 1 to 22 and Comparative Examples 1 and 2 was 10 to 1000-fold diluted in a 0.2 M Tris-HCl buffer (pH 7.4), and 20 μl of the dilution was mixed with 60 μl of a luciferin solution described below to obtain a sample. The emission intensity of the sample was measured using a luminometer under the following conditions, and the measured emission intensity was substituted into the following formula. The resulting value was regarded as the luciferase activity of the secreted and produced useful substance.
# Luminometer: “Glomax Navigator” available from Promega Corporation Luciferin solution: product of New England Biolabs Japan Inc. Measurement temperature: 25° C. Detector: emission detector Detection wavelength: 350 to 700 nm
# (Luciferase activity of secreted and produced useful substance)=(Emission intensity)×dilution factor/(optical density at the end of culturing)
# The bacteria obtained in each of Examples 1 to 22 and Comparative Examples 1 and 2 were mixed with a 0.2 M Tris-HCl buffer (pH 7.4) in an amount of 200 μl that is equal to the amount of the removed supernatant, followed by centrifugation, whereby the bacteria were washed. The washed bacteria were resuspended in a 0.2 M Tris-HCl buffer (pH 7.4) in an amount of 200 μl that is equal to the amount of the washed supernatant, and 10 to 1000-fold diluted in a 0.2 M Tris-HCl buffer (pH 7.4). The resulting dilution was used as a sample for measuring the luciferase activity on the bacterial surface.
# Then, 20 μl of the sample for measuring the luciferase activity on the bacterial surface was mixed with 60 μl of the luciferin solution to obtain a sample. The emission intensity of the sample was measured under the same conditions as for “Measurement of luciferase activity of secreted and produced useful substance”, and the measured emission intensity was substituted into the following formula. The resulting value was regarded as the luciferase activity of the useful substance remaining on the bacterial surface. […]
# [3] = physchem; details: pKa of the ionizable group in water at 25° C., two values where two ionizable groups
# Description: as §1
# [4] = surfactant 0.03 wt % of broth, Examples 13, 16-22
Compound,"Secretion efficiency (%) [2, 4]",further results
sodium polyoxyethylene (average 3 mol adduct) lauryl ether acetate [Surfactant (A1-2)],64%,pKa of the ionizable group in water at 25° C. [1]: 3.6
sodium (2-dodecylamino)ethanesulfonate [Surfactant (A3-1)],62%,–
"CCCCCCCCCCCCCCCCOP(=O)([O-])OCC[N+](C)(C)C [Surfactant (A3-4), miltefosine, reference compound]",66%,–
CCCCCCCCCCCCNCCC(=O)O,80%,"Secretion efficiency (%) ([2]; surfactant 0.003 wt % of broth, Example 12): 64%; Secretion efficiency (%) ([2]; surfactant 0.3 wt % of broth, Example 14): 84%; Secretion efficiency (%) ([2]; surfactant 3 wt % of broth, Example 15): 67%"
"CCCCCCCCCCCC[N+](C)(C)CC(=O)[O-] [Surfactant (A3-5), betaine lauryldimethylaminoacetate]",90%,–
"CCCCCCCCCCCC[N+](C)(C)CCCS(=O)(=O)O.[OH-] [Surfactant (A3-3), dodecyldimethyl(3-sulfopropyl)ammonium hydroxide]",75%,–
sodium polyoxyethylene (average 2.5 mol adduct) lauryl ether sulfate [Surfactant (A1-1)],66%,pKa of the ionizable group in water at 25° C. [1]: 2.0
"CCCCCCCCCCCC[N+](C)(C)C.[Cl-] [Surfactant (A2-1), lauryl trimethyl ammonium chloride]",88%,pKa [3]: 14
